Results taken from patent US11926645B2, “Compounds and methods for treatment of viral infections” (priority 2020, dated 2024).
Read-outs that look alike come from different tables or passages of the source.

Assays:
RSV strain A2 = assay: RSV antiviral assay (Hep2), EC50-Hep2/B1-384; format: cell-based; conditions: human respiratory syncytial virus, HEp-2, 96 h; Hep2 cells, 4 days, Cell-Titer Glo
in vitro [1] = format: cell-based; conditions: human
Experimental: The cytotoxicity of compounds was determined in A549-hACE2 cells in the following manner. Compounds (200 nL) were spotted onto 384-well Grenier plates prior to seeding 5000 A549-hACE2 cells/well in a volume of 40 μL culture medium. The plates were incubated at 37° C. for 48 hours with 5% CO2. On day 2, 40 μL of CellTiter-Glo (Promega) was added and mixed 5 times.

[2] = tested on: SARS-CoV-2 SA/2020 B.1.351; assay: microbe, parasite or virus in culture; format: cell-based; conditions: Severe acute respiratory syndrome coronavirus 2, Vero C1008
SARS-CoV-2 WA1/2020 A = assay: microbe, parasite or virus in culture; format: cell-based; conditions: Severe acute respiratory syndrome coronavirus 2, Vero C1008
SARS-CoV-2 BZ/2021 P.1 = assay: microbe, parasite or virus in culture; format: cell-based; conditions: Severe acute respiratory syndrome coronavirus 2, Vero C1008
SARS-CoV-2 CA/2020 = assay: microbe, parasite or virus in culture; format: cell-based; conditions: Severe acute respiratory syndrome coronavirus 2, Vero C1008
[3] = tested on: SARS-CoV-2 2019-nCoV/USA-WA1/2020; format: in vivo
CES2 = biological target: T1, CES2 (Homo sapiens, UniProt O00748); assay: CES1/2 stability, CES2; format: in vitro ADME; conditions: CES2 Supersome preparation; Supersome preparations, CES 1.5 mg/ml, 2 μM substrate, pH 7.4, 37° C.; read-out: CES2 T1/2
T1 construct: purchased
T1 sequence (O00748 27-559): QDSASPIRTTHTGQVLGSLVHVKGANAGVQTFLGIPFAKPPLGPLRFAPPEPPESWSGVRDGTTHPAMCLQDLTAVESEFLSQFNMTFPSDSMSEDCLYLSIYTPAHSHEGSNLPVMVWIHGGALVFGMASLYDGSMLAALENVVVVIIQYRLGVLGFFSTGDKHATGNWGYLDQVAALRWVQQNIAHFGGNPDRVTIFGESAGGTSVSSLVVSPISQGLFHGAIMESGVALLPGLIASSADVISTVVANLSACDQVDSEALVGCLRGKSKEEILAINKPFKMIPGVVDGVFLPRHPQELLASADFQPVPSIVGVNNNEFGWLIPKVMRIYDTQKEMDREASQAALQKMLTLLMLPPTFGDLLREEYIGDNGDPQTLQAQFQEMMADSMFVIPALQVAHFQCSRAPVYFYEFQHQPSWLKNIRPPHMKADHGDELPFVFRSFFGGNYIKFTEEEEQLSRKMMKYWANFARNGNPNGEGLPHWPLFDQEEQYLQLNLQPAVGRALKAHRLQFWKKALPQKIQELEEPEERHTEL
Experimental: Test compounds or positive control substrates (oseltamivir for CES1 enzymes or procaine for CES2) were incubated with individual Supersome preparations (final CES concentration 1.5 mg/ml) in 0.1 M potassium phosphate buffer (pH 7.4) at 37° C. Substrates were added to a final concentration of 2 μM to initiate the reaction. The final incubation volume was 250 μL. Aliquots were removed after incubation for 0, 10, 30, 60 and 120 min. The reactions were stopped by the addition of IS/Q. Following protein precipitation and centrifugation, 150 μL of supernatant was diluted with an equal volume of water prior to LC-MS analysis. For procaine 150 μL of supernatant was dried down and reconstituted with 250 μL water. All samples were analyzed by LC-MS and the PAR values were used for quantification.

[4] = male, Sprague-Dawley, rat, in vivo, po, 8 mg/kg
[5] = in vivo, po
in vitro [6] = conditions: African green monkey
in vitro [7] = conditions: human, PrestoBlue
[8] = […], Compound 1 10 mg/kg and 3 mg/kg, EIDD-2801/molnupiravir 5 mg/kg

What does the source list for `CC(C)C(=O)OC[C@H]1O[C@@](C#N)(c2ccc3c(N)ncnn23)[C@H](OC(=O)C(C)C)[C@@H]1OC(=O)C(C)C` [Compound 1, (2R,3R,4R,5R)-2-(4-aminopyrrolo[2,1-f][1,2,4]triazin-7-yl)-2-cyano-5-((isobutyryloxy)methyl)tetrahydrofuran-3,4-diyl bis(2-methylpropanoate)]?
EC50 (RSV strain A2): 0.261 µM; CC50 at 48 h (in vitro [1]): > 50 µM; CC50 (in vitro [1]; host cells A549-ACE2, read-out: CC50, A549-ACE2): > 50 µM; EC50 [2]: 0.11 µM; EC50 (SARS-CoV-2 WA1/2020 A): 0.73 µM; EC50 (SARS-CoV-2 BZ/2021 P.1): 0.22 µM; EC50 (SARS-CoV-2 CA/2020): 0.21 µM; Clinical signs versus vehicle animals [3, 8]: No significant differences in clinical signs; Virus burden in the turbinates [3, 8]: reduced burden in the turbinates; Shed virus load (nasal lavages) versus vehicle ([3]; […], Compound 1 10 mg/kg and 3 mg/kg, EIDD-2801/molnupiravir 5 mg/kg, within 12 hours of treatment onset): lower in all treated animals than in the vehicle group; Viral RNA copies in nasal lavages and turbinates versus vehicle ([3]; […], Compound 1 10 mg/kg, EIDD-2801/molnupiravir 5 mg/kg): statistically significant mean reduction; Clinical signs (body temperature, weight gain) ([3]; in vivo, po, 20 mg/kg): only animals of the vehicle group showed elevated body temperature; Shed SARS-CoV-2 load in nasal lavages ([3]; in vivo, po, 20 mg/kg): transiently detectable in lavages of only one ferret; Viral RNA copy numbers in turbinates, difference between vehicle and treatment groups ([3]; in vivo, po, 20 mg/kg): three; Virus in nasal turbinates 4 days after infection ([3]; in vivo, po, 20 mg/kg): undetectable; half-life at 2 μM (CES2): < 1 min; Cmax [4]: 5.83 µM; Compound 1 concentration transiently observed ([5]; ferret, 30 mg/kg): ^aapproximately 10 nM Compound 1 transiently observed in first two hours.; oral bioavailability (in words) [5]: excellent oral bioavailability; Cmax ([5]; 30 mg/kg): 15.8 ± 4.7 µM; CC50 (in vitro [6]): > 100 µM; CC50 (in vitro [7]; CC50, DF2 HAE, primary diseased (asthma) HAE donor DF2, 72 hours): 86 µM; CC50 (in vitro [7]; CC50, F2 HAE, primary HAE donor F2, 72 hours): 43.8 µM; CC50 (in vitro [7]; CC50, F3 HAE, primary HAE donor F3, 72 hours): 43.8 µM; CC50 (in vitro [7]; CC50, M2 HAE, primary HAE donor M2, 72 hours): 39.7 µM; CC50 (in vitro [7]; CC50, M6 HAE, primary HAE donor M6, 72 hours): 92.3 µM
